Test results taken from US6620938B1, “Compounds that inhibit GRB2-SHC binding and process for preparing same” (Korea Research Institute of Bioscience and Biotechnology, priority 1999, dated 2003).
pIC50: −log10 of the molar value. Values joined by “and” are separate entries in the source; they are usually repeats but may differ in a detail not shown here. Equal values may be shown once.

Assays:
[1] = Solubility in solvents (physicochemical characteristics, Table 1)
Excerpt: Based on the above-mentioned spectral data and physicochemical characteristics shown in Table 1, the structures of Compounds(I), (II) and (III) was unequivocally settled. Compounds(II) and (III) are sclerotiorine and isochromopilone, respectively, which are known compounds, while Compound(I) is a novel compound.

[2] = target: T1, Grb2-Shc binding (GST-Grb2 fusion protein, [3H]propionylated-hShc peptide) (Homo sapiens, UniProt P62993); experiment: Grb2-Shc binding inhibition, scintillation proximity assay; settings: SPA, competition with [3H]propionylated-hShc peptide for GST-Grb2, room temperature 30 minutes, pH 7.4; read-out: concentration required for inhibiting the Grb2-Shc binding by 50% (IC50)
T1 construct: purchased Santa Cruz Biotech Inc
Protocol: The activity of the inventive compound in inhibiting Grb2-Shc binding was determined in accordance with the scintillation proximity assay method by way of measuring the extents of competitive bindings of [^3H]propionylated-hShc peptide and the inventive compound toward Grb2.
Added to a 1.5 ml eppendorf tube were 10 μl of 0.3 μg GST-Grb2 fusion protein(Santa Cruz Biotech Inc.), 10 μl of SPA PVT antibody-binding beads(Amersham Co.), 10 μl of 0.1 μ Ci [^3H]propionylated-hShc peptide(Amersham Co.), 10 μl of 6 μg anti-GST rabbit IgG(Molecular Probes) and 10 μl of a DMSO solution containing each of the compounds obtained in Example 2 and the total volume was adjusted to 200 μl using SH2 buffer solution(20 mM Tris-HCI, 250 mM NaCl and 0.1% cow serum albumin, pH 7.4). The resulting mixture(sample) was reacted at room temperature for 30 minutes. After the completion of the reaction, the Grb2-Shc binding inhibiting activity was determined by examining the extent of comparative binding of [^3H]propionylated-hShc peptides toward Grb2 proteins, expressed by a unit of count per minute(CPM), with a liquid scintillation counter. The same procedure was repeated in the absence of GST-Grb2(blank) or in the absence of any added compounds(control).
The Grb2-Shc binding inhibiting activity was then calculated in accordance with the following equation: [formula]

phospholipase A2 = settings: reported in the literature; cited from earlier work

T1 sequence (P62993 whole entry, the tested form may be a part): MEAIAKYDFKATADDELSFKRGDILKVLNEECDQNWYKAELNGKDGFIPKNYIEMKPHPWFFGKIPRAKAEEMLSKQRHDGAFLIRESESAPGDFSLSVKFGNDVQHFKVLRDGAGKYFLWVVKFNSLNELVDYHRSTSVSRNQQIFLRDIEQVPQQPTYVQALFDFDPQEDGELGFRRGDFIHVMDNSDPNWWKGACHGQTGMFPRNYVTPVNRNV

| Compound | Soluble ([1]; solvents in which the compound is soluble) | pIC50 [2] | Insoluble [1] | phospholipase A2 inhibiting activity (phospholipase A2) |
| --- | --- | --- | --- | --- |
| CCC(C)/C=C(C)/C=C/C1=CC2=C(Cl)C(=O)[C@](C)(O)C(OC(C)=O)C2CO1 (stereo partly shown) [Compound(III), isochromopilone IV] | CHCl3, EtOAc, and MeOH | ~4.96 and 4.96 |  |  |
| CCC(C)/C=C(C)/C=C/c1cc2c(cn1)=C(OC)[C@@](C)(OC(C)=O)C(=O)C=2Cl (stereo partly shown) [Compound(I)] |  | ~5.22 and 5.22 | H2O |  |
| CCC(C)/C=C(C)/C=C/C1=CC2=C(Cl)C(=O)[C@](C)(OC(C)=O)C(=O)C2=CO1 (stereo partly shown) [Compound(II), sclerotiorine] |  | ~4.92 and 4.92 | H2O | phospholipase A2 inhibiting activity |
